Square brackets hold non-standard residues; d marks the D form. Peptide text beside a SMILES is read from it. * marks the point of attachment. Dolaproine = CO[C@@H]([C@@H]1CCCN1)[C@@H](C)C(=O)O; Dil = CC[C@H](C)[C@H](NC)[C@@H](CC(=O)O)OC; X1 = C[C@@H](N*)[C@@H](O)c1ccccc1; NMeV = CN[C@H](C(=O)O)C(C)C
Assays:
[1] = Distribution and metabolism in blood, tissues and tumour; type: in vivo, mice; settings: for area under the drug-time curve as share of that in tumors: after compound III-2 25 mg/kg
Protocol: The present example evaluated distribution and metabolism of compound III-2. SKOV3 ovarian cancer tumor-bearing mice were randomly divided into 6 groups. After tail vein injection with a single dose of compound III-2 (25 mg/kg), the mice were euthanized at the predetermined time points of 6 h, 24h, 72 h, 96 h, 168 h, 192 h in order, and blood, heart, liver, spleen, lung, and tumor samples were collected. The blood and tissue samples were stored at -80 °C for further analysis. […] At 96 h after the administration, Cys-II-2 was hardly detected in heart, liver, spleen, and lung. The peak concentration and area under the curve of the cytotoxin MMAE in the tumor were 293 times and 941 times those in peripheral blood, respectively, further proving that the excellent targeting capability of compound III-2. The area under the drug-time curve of MMAE in heart, liver, spleen and lung were 11%, 47%, 5% and 7% of area under the drug-time curve in tumors, respectively. […] Table 5 Concentration of Cys-II-2 in each group

BT-474 = experiment: In vitro cytotoxicity (CellTiter Glo); type: cell-based; settings: Homo sapiens, BT-474, read-out: EC50 (cell proliferation inhibitory activity)
Protocol: (§1) The test procedure was shown as follows: • 1. Thawing Cell • Cryopreserved target cells was thawed by gentle agitation of the cryovial in a 37 °C water bath; • after thawing, the cryovial was removed from the water bath and decontaminated by spraying or immersing in 70% ethanol; • the cells in the cryovial were transferred into a centrifuge tube containing 9 mL of complete DMEM culture medium, followed by centrifugation at 200 g for 5 min; • the cells were resuspended with culture medium, and precipitated and seeded into a 75 cm^2 culture flask; • the cells were cultured in a Galaxy® CO2 incubator (48R, #CO48312044) under standard culture conditions of 37 °C, 20% oxygen and 5% carbon dioxide. • 2. Spreading Cell • Cells were subcultured three times per week at a ratio of 1:4 in a culture medium supplemented with 10% FBS (heat inactivated) and a 1% Penicillin-Streptomycin solution; • for cell passaging, adherent cells were first rinsed with 3 mL of trypsin/EDTA solution (3 mL). Then, 3 mL of trypsin/EDTA solution was added to the T75 culture flask, and the flask was gently rotated to ensure uniform coverage of the cell. The cells were incubated at 37 °C until complete cell detachment was achieved. Cell detachment was verified under a microscope, then an equal volume of the cell culture medium was added to inactivate the trypsin, and the separated cells were collected, centrifuged at 200 g for 5 minutes, and then re-suspended in a fresh culture medium. • 3. Inoculating cell • The cells were collected and counted; • 100 µ L of a cell suspension with adjusted density were inoculated to a 96-well cell culture plate, and the final cell density was about from 5000 cells/well to 10000 cells/well; • The culture plate was covered and incubated in a 5% CO2 incubator with 20% oxygen at 37 °C for 24 h. • 4. […] Co-incubation of cells with test compounds The culture medium in the 96 wells plate inoculated with cells was discarded, 150 µL of fresh culture medium was added to each well, and then 50 µL of the prepared test compounds were added to the 96-well plate. After the cells were co-incubated with the compounds in an incubator under conditions of 37 °C, 5% CO2, and 0.1% O2 for 24 h. After incubation, the drug-containing medium was removed, and the cells were rinsed with a fresh culture medium. Then the cells were placed in an incubator at 37 °C, 5% CO2, and 20% O2 and continuously cultured for an additional 72 h or 120 h. • 6. Reading plate • The plate was taken out of the incubator and equilibrated for 15 minutes at room temperature; • prior to the experiment, the CellTiter Glo reagent was incubated at 37 °C; • The detection solution was prepared by diluting CellTiter-Glo reagent with PBS at a volume ratio of 3:7, and the diluted solution was added into the wells to be tested; • the plate was then shaken at room temperature for 8 min, and allowed to stand for 2 min, and then signals were detected using an EnSpire reader. • 7.

MCF-7 = experiment: In vitro cytotoxicity (CellTiter Glo); type: cell-based; settings: Homo sapiens, MCF7; hypoxic conditions (0.1% O2), HER2-; read-out: EC50 (cell proliferation inhibitory activity)
Protocol: as §1

NCI-N87 = experiment: In vitro cytotoxicity (CellTiter Glo); type: cell-based; settings: Homo sapiens, hypoxic conditions (0.1% O2), HER2+, read-out: EC50 (cell proliferation inhibitory activity)
Protocol: as §1

SKBR3 = experiment: In vitro cytotoxicity (CellTiter Glo); type: cell-based; settings: Homo sapiens, SK-BR-3, read-out: EC50 (cell proliferation inhibitory activity)
Protocol: as §1

MDA-MB-231 = experiment: In vitro cytotoxicity (CellTiter Glo); type: cell-based; settings: Homo sapiens, hypoxic conditions (0.1% O2), HER2-, read-out: EC50 (cell proliferation inhibitory activity)
Protocol: as §1

[2] = test system: Staphylococcus aureus USA300; experiment: Antibacterial activity against free bacteria (OD600nm); type: cell-based; settings: free USA300, 37 °C, 16 h to 18h
Protocol: The present example evaluated the antibacterial efficacy of compound III-16 against free Staphylococcus aureus. 5 µL to 10 µL of a Staphylococcus aureus USA300 stock suspension stored at - 80 °C was taken and streaked on Brain Heart Infusion solid culture plates and incubated overnight at 37 °C in a biochemical incubator. A single USA300 colony was picked from the solid culture plates, inoculated into an appropriate volume of Brain Heart Infusion medium, and activated for 16 h to 18 h in a bacteria shaking incubator, then the bacterial suspension was centrifuged for 5 min at a rotating speed of 4000 rpm to collect the bacteria. The bacteria were resuspended in 1×PBS and the bacterial density was diluted to about […]. The diluted bacterial suspension was added to 96-well plates at 100 µL per well. Serially diluted compound III-16 and rifalogue were added to the bacterial suspension in the 96-well plates, and the bacteria was cultured in a biochemical incubator at 37 °C for 16 h to 18h, then the OD600nm was detected using a microplate reader. […] Without being limited by theories, it is speculated that the activity of compound III-16 against free bacteria may be stemed from the cleavage of the linker in compound III-16 by azoreductase extracellularly secreted by the bacteria, which releases rifalogue to exert antibacterial effect.

[3] = after compound III-2 25 mg/kg single tail vein injection

Structure (SMILES): CC[C@H](C)[C@@H]([C@@H](CC(=O)N1CCC[C@H]1[C@H](OC)[C@@H](C)C(=O)N[C@H](C)[C@@H](O)c1ccccc1)OC)N(C)C(=O)[C@@H](NC(=O)[C@@H](NC)C(C)C)C(C)C [MMAE] (H-[NMeV]V[Dil][Dolaproine]-X1)
- Concentration of MMAE ([1]; Blood, 6 h, after compound III-2 25 mg/kg single tail vein injection): 1.54 ng/g or ng/mL
- Concentration of MMAE ([1]; Blood, 24 h, after compound III-2 25 mg/kg single tail vein injection): 0.51 ng/g or ng/mL
- Concentration of MMAE ([1]; Blood, 72 h, after compound III-2 25 mg/kg single tail vein injection): 0.23 ng/g or ng/mL
- Concentration of MMAE ([1]; Blood, 96 h, after compound III-2 25 mg/kg single tail vein injection): 0.12 ng/g or ng/mL
- Concentration of MMAE ([1]; Blood, 168 h, after compound III-2 25 mg/kg single tail vein injection): 0.10 ng/g or ng/mL
- Concentration of MMAE ([1]; Blood, 192 h, after compound III-2 25 mg/kg single tail vein injection): BQL
- Concentration of MMAE ([1]; Heart, 6 h, after compound III-2 25 mg/kg single tail vein injection): 112.72 ng/g or ng/mL
- Concentration of MMAE ([1]; Heart, 24 h, after compound III-2 25 mg/kg single tail vein injection): 71.97 ng/g or ng/mL
- Concentration of MMAE ([1]; Heart, 72 h, after compound III-2 25 mg/kg single tail vein injection): 32.46 ng/g or ng/mL
- Concentration of MMAE ([1]; Heart, 96 h, after compound III-2 25 mg/kg single tail vein injection): 17.99 ng/g or ng/mL
- Concentration of MMAE ([1]; Heart, 168 h, after compound III-2 25 mg/kg single tail vein injection): 2.70 ng/g or ng/mL
- Concentration of MMAE ([1]; Heart, 192 h, after compound III-2 25 mg/kg single tail vein injection): 0.80 ng/g or ng/mL
- Concentration of MMAE ([1]; Liver, 6 h, after compound III-2 25 mg/kg single tail vein injection): 348.31 ng/g or ng/mL
- Concentration of MMAE ([1]; Liver, 24 h, after compound III-2 25 mg/kg single tail vein injection): 269.21 ng/g or ng/mL
- Concentration of MMAE ([1]; Liver, 72 h, after compound III-2 25 mg/kg single tail vein injection): 115.44 ng/g or ng/mL
- Concentration of MMAE ([1]; Liver, 96 h, after compound III-2 25 mg/kg single tail vein injection): 101.72 ng/g or ng/mL
- Concentration of MMAE ([1]; Liver, 168 h, after compound III-2 25 mg/kg single tail vein injection): 26.86 ng/g or ng/mL
- Concentration of MMAE ([1]; Liver, 192 h, after compound III-2 25 mg/kg single tail vein injection): 10.07 ng/g or ng/mL
- Concentration of MMAE ([1]; Lung, 6 h, after compound III-2 25 mg/kg single tail vein injection): 22.96 ng/g or ng/mL
- Concentration of MMAE ([1]; Lung, 24 h, after compound III-2 25 mg/kg single tail vein injection): 12.85 ng/g or ng/mL
- Concentration of MMAE ([1]; Lung, 72 h, after compound III-2 25 mg/kg single tail vein injection): 19.79 ng/g or ng/mL
- Concentration of MMAE ([1]; Lung, 96 h, after compound III-2 25 mg/kg single tail vein injection): 43.95 ng/g or ng/mL
- Concentration of MMAE ([1]; Lung, 168 h, after compound III-2 25 mg/kg single tail vein injection): 1.93 ng/g or ng/mL
- Concentration of MMAE ([1]; Lung, 192 h, after compound III-2 25 mg/kg single tail vein injection): 1.04 ng/g or ng/mL
- Concentration of MMAE ([1]; Spleen, 6 h, after compound III-2 25 mg/kg single tail vein injection): 21.29 ng/g or ng/mL
- Concentration of MMAE ([1]; Spleen, 24 h, after compound III-2 25 mg/kg single tail vein injection): 19.80 ng/g or ng/mL
- Concentration of MMAE ([1]; Spleen, 72 h, after compound III-2 25 mg/kg single tail vein injection): 20.24 ng/g or ng/mL
- Concentration of MMAE ([1]; Spleen, 96 h, after compound III-2 25 mg/kg single tail vein injection): 13.60 ng/g or ng/mL
- Concentration of MMAE ([1]; Spleen, 168 h, after compound III-2 25 mg/kg single tail vein injection): 3.82 ng/g or ng/mL
- Concentration of MMAE ([1]; Spleen, 192 h, after compound III-2 25 mg/kg single tail vein injection): 1.40 ng/g or ng/mL
- Concentration of MMAE ([1]; Tumour, 6 h, after compound III-2 25 mg/kg single tail vein injection): 54.24 ng/g or ng/mL
- Concentration of MMAE ([1]; Tumour, 24 h, after compound III-2 25 mg/kg single tail vein injection): 179.62 ng/g or ng/mL
- Concentration of MMAE ([1]; Tumour, 72 h, after compound III-2 25 mg/kg single tail vein injection): 292.45 ng/g or ng/mL
- Concentration of MMAE ([1]; Tumour, 96 h, after compound III-2 25 mg/kg single tail vein injection): 451.68 ng/g or ng/mL
- Concentration of MMAE ([1]; Tumour, 168 h, after compound III-2 25 mg/kg single tail vein injection): 198.90 ng/g or ng/mL
- Concentration of MMAE ([1]; Tumour, 192 h, after compound III-2 25 mg/kg single tail vein injection): 125.44 ng/g or ng/mL
- area under the curve in the tumor relative to peripheral blood [1, 3]: 941 times
- peak concentration in the tumor relative to peripheral blood [1, 3]: 293 times
- area under the drug-time curve as share of that in tumors ([1]; heart): 11%
- area under the drug-time curve as share of that in tumors ([1]; liver): 47%
- area under the drug-time curve as share of that in tumors ([1]; lung): 7%
- area under the drug-time curve as share of that in tumors ([1]; spleen): 5%
- EC50 (BT-474): 0.032 nM
- EC50 (MCF-7): 0.015 nM
- EC50 (NCI-N87): 0.24 nM
- EC50 (SKBR3): 0.058 nM
- EC50 (MDA-MB-231): 0.57 nM

Structure (SMILES): CO[C@H]1C=CO[C@@]2(C)Oc3c(C)c(O)c4c(=O)c(c5oc6cc(N7CCC(N(C)C)CC7)cc(=O)c6nc5c4c3=C2O)NC(=O)/C(C)=C\C=C/[C@H](C)[C@H](O)[C@@H](C)[C@@H](O)[C@@H](C)[C@H](OC(C)=O)[C@@H]1C [rifalogue]
- MIC90 [2]: about 1.4 nM

From patent EP4818155A1, “AZOBENZENE-[…], PROTEIN-COUPLED DRUG […], AND PHARMACEUTICAL USE THEREOF” (priority 2023, dated 2025)
